From patent publication US20090246134A1, “COMPOSITIONS AND METHODS FOR MODULATING GATED ION CHANNELS” (PainCeptor Pharma Corporation, priority 2007, published 2009)
Values joined by “and” are separate entries in the source; they are usually repeats but may differ in a detail not shown here. Identical values can stand only once.

Experiment: Liver microsomes stability and metabolite identification (LC-MS), human
Assay type: in vitro ADME
Text: The objective of this study is to analyze in vitro samples of Compound A and Compound B from rat and human microsomes using liquid chromatography quadrupole ion trap mass spectrometry and identify the nature of the metabolite(s) for each species.
The HPLC system consisted of a Thermo Surveror autosampler and a Thermo Surveyor MS pump (San Jose, Calif., USA). The LC-MS/MS system used was a Thermo LCQ Advantage (San Jose, Calif., USA). Data was acquired on a Dell Optiplex desktop computer (Round Rock, Tex., USA) equipped with operation system Windows XP professional. Data acquisition and analysis were performed using XCalibur 1.4 (San Jose, Calif., USA).
After the incubation period of the liver microsomes, the reaction was stopped with the addition of acetonitrile and frozen for transport. Before analysis, the samples were thawed at room temperature. They were vortexed vigorously and centrifuged at approximately 12000 g for 10 minutes. The supernatant was transferred into an injection vial for analysis.
A gradient mobile phase was used with a Thermo Phenyl 100×2 mm column with particle size of 5 μm. The initial mobile phase condition consisted of methanol and 0.1% formic acid solution at a ratio of 20:80, respectively. From 0 to 2 minutes, the ratio was maintained at 20:80. From 2 to 10 minutes, a linear gradient was applied and a ratio of 90:10 was maintained from 10 to 12 minutes. […] The flow rate was fixed at 0.25 mL/min.
The mass spectrometer was interfaced with the HPLC system using a pneumatic assisted electrospray ion source. The sheath gas was set to 15 units and the ESI electrode was set to 4000 V (positive mode). The capillary temperature was set at 300° C., and the capillary voltage was set to 13 V. The mass spectrometer was operating in full scan MS mode using one segment analysis (200-800).

[1] = human microsomes 60 min (samples 14-16)

COc1ccc(F)cc1-c1cc2c(c3c1CCN(C)C3)NC(=O)C2=NO [Compound A, 5-(5-fluoro-2-methoxyphenyl)-6,7,8,9-tetrahydro-3-(hydroxyimino)-8-methyl-1H-pyrrolo[3,2-h]isoquinoline-2(3H)-one]
Total % metabolites (% peak area relative to parent at T0, 60 min incubation, human microsomes): 8.08%
Compound A metabolite identification: m/z 342 [1]: Yes
Compound A metabolite identification: m/z 356 (parent) [1]: Yes
Compound A metabolite identification: m/z 372 [1]: Yes
Compound A metabolite identification: m/z 412 [1]: no
Calc. Conc. (human microsomes, time 0 min): 4.91 µM and 6.54 µM
Calc. Conc. (human microsomes, time 60 min): 3.84 µM and 3.83 µM and 3.77 µM
